In US20240350650A1, “LINKER AND CONJUGATE THEREFOR” (BEIJING HOPE PHARMACEUTICAL CO.LTD., priority 2021, published 2024):

Columns and labels:
Experiment in all cases: Inhibition of tumor cell proliferation (CTG, 6 days)
Type in all cases: cell-based, human
NCI-H596 cells = conditions: FIG. 8
Method: (§1) All the cells were those with high expression of Trop2 antigens. Trodelvy was the tradename of sacituzumab govitecan injector. Sacituzumab was an outsourced anti-Trop2 antibody. All cell lines were cultured in the complete medium at 37° C. with 5% CO2. Cells in the logarithmic growth phase were harvested and then counted using a […], and the cell viability was tested by the trypan blue rejection method to ensure that the cell viability was above 90%. […] The cells in the 96-well plate were cultured at 37° C. with 5% CO2. […] The cells from the dosed 96-well plate were cultured at 37° C. with 5% CO2 for another 6 days, followed by CTG analysis (CTG, a CellTiter-Glo kit, was a homogeneous cell viability assay for quantifying ATP to determine the viability of cultured cells). The CTG reagent was thawed, and the cell plate was equilibrated to room temperature for 30 min. 100 μL of CTG solution was added per well. The cells were shaken on an orbital shaker for 5 min for lysis. The cell plate was treated at room temperature for 20 min to stabilize the cold light signal. The cold light values were read to collect data. […] [formula]

SNU216 cells = conditions: FIG. 6
Method: as §1

MDA-MB-468 cells = conditions: FIG. 5
Method: as §1

NCI-H1650 cells = conditions: FIG. 7
Method: as §1

In the case of Trodelvy, the “efficacy (in words)” value (NCI-H596 cells) is reported as “certain efficacy”, the “efficacy (in words)” value (SNU216 cells) is reported as “superior to Sacituzumab” and the “efficacy (in words)” value (MDA-MB-468 cells) is reported as “superior to Sacituzumab”. For the same substance, the “efficacy (in words)” value (NCI-H1650 cells) was “superior to Sacituzumab”.
